# Values quoted from earlier work in patent US20090265114A1, “Influenza virus neuraminidase crystal structure and their use thereof” (priority 2006, published 2009).
# Columns and labels:
# [1] = tested on: Group-1 NAs with His-274->Tyr
# [2] = tested on: Group-2 NAs with His-274->Tyr
# [3] = tested on: Group-1 enzymes with Arg-292->Lys; conditions: Group-1 enzymes compared with Group-2 NAs
structure (smiles),measurement,setting,value
CCOC(=O)C1=C[C@@H](OC(CC)CC)[C@H](NC(C)=O)[C@@H](N)C1 [oseltamivir],resistance against oseltamivir caused by the mutation His-274->Tyr,[1],high resistance
same,effect of the mutation His-274->Tyr on resistance against oseltamivir,[2],little effect
same,effect of the mutation Arg-292->Lys on oseltamivir resistance,[3],smaller effect
